# Source: PubChem BioAssay (NCI)
# Where “and” joins values, the source holds several entries; their conditions need not be identical. Identical values can stand only once.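 Briefly, cells in 96-well plates were exposed to five compound concentrations for 48 h, and endpoints were estimated by linear interpolation. GI50 is the concentration that inhibits growth by half. The concentration for full growth arrest is given as TGI.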
# How the values were obtained:
# Assay in all cases: NCI tumour cell line growth inhibition, 48 h
# DLD-1 colon = test system: DLD-1 colon
# XF 498 CNS = test system: XF 498 CNS
# SR leukemia = test system: SR leukemia
# LXFL 529 NSCLC = test system: LXFL 529 NSCLC
# HS 578T breast = test system: HS 578T breast
# 786-0 renal = test system: 786-0 renal
# T-47D breast = test system: T-47D breast
# MDA-MB-435 = test system: MDA-MB-435
# MDA-MB-231 breast = test system: MDA-MB-231 breast
# P388 leukemia = test system: P388 leukemia
# SNB-78 CNS = test system: SNB-78 CNS
# HOP-18 NSCLC = test system: HOP-18 NSCLC
# SN12K1 renal = test system: SN12K1 renal
# DMS 273 small cell lung = test system: DMS 273 small cell lung
# DMS 114 small cell lung = test system: DMS 114 small cell lung
# P388/ADR leukemia = test system: P388/ADR leukemia
# RXF-631 renal = test system: RXF-631 renal
SMILES,TGI (DLD-1 colon) [µM],TGI (SR leukemia),TGI (HS 578T breast),TGI (786-0 renal) [µM],TGI (T-47D breast),TGI (MDA-MB-435),TGI (MDA-MB-231 breast),TGI (SNB-78 CNS) [µM],TGI (HOP-18 NSCLC) [µM],TGI (DMS 273 small cell lung) [µM],TGI (DMS 114 small cell lung) [µM],other results
O=C1C(Cl)N(c2c(Cl)cccc2Cl)C1c1c[nH]c2ccccc12 (centres undefined),> 100,> 100 µM,–,–,–,–,–,–,–,–,–,TGI (XF 498 CNS): > 100 µM; TGI (LXFL 529 NSCLC): > 100 µM
O=[N+]([O-])c1ccc(SN=S=NSc2cccc(SN=S=NSc3ccc([N+](=O)[O-])cc3)c2)cc1,–,> 100 µM,> 100 µM,27.2,38.9 µM,71.2 µM,–,–,–,–,–,–
CSc1ncnc2c1cnn2Cc1cnnn1COCC(O)CO (centres undefined),–,> 100 µM,–,> 100,> 100 µM,> 100 µM,> 100 µM,–,–,–,–,–
C/C(=C/C(=O)Nc1ccccc1)Nc1onc(C)c1C,> 100,–,–,–,–,–,–,> 100,> 100,> 100,> 100,TGI (P388 leukemia): > 100 µM; TGI (XF 498 CNS): > 100 µM; TGI (SN12K1 renal): > 100 µM
Brc1ccc(C2C3CSc4ccccc4C3=NN2c2ccccc2)cc1 (centres undefined),–,> 100 µM,> 100 µM,> 100,86.3 µM,> 100 µM,> 100 µM,–,–,–,–,–
O=NN1C(c2ccccc2)CNC(=O)CC1c1ccccc1 (centres undefined),> 100,–,–,–,–,–,–,> 100,> 100,> 100,59.3,TGI (P388 leukemia): 62.3 µM; TGI (P388/ADR leukemia): 63.5 µM; TGI (SN12K1 renal): > 100 µM
CSc1ncnc2c1cnn2Cc1cn(COCCO)nn1,–,> 100 µM,> 100 µM,> 100,> 100 µM,42.3 µM,> 100 µM,–,–,–,–,–
O=C1OC(c2ccccc2)=NC1c1ccccc1 (centres undefined),–,> 100 µM,> 100 µM,> 100,> 100 µM,> 100 µM,> 100 µM,–,–,–,–,–
CN(C)CCNc1ccc2ncn3c4ccccc4c(=O)c1c23,12.8,> 100 µM,–,13.9,–,–,–,19.8,33,–,13.7,TGI (LXFL 529 NSCLC): 19.2 µM
C1CNOCCCONCCCNOCCCONC1,–,–,> 100 µM,> 100,44.4 µM,> 100 µM,79.6 µM,–,–,–,–,–
N#C/C(=C\c1ccncc1)c1csc2ccccc12,96.9,–,–,–,–,–,–,73.8,99.7,73.6,–,TGI (P388 leukemia): 39.2 µM; TGI (XF 498 CNS): 46.3 µM; TGI (P388/ADR leukemia): 25.2 µM; TGI (SN12K1 renal): > 77.7 µM
S=c1sc2c(s1)SC(c1ccccc1)CS2 (centres undefined),> 100,–,–,–,–,–,–,> 100,> 100,> 100,> 100,TGI (P388 leukemia): > 100 µM; TGI (P388/ADR leukemia): > 100 µM; TGI (SN12K1 renal): > 100 µM
O=C(NN1C(=O)C(Cl)C1c1ccccc1O)c1ccccc1O (centres undefined),–,> 100 µM,–,–,–,–,–,–,–,–,55.2,TGI (LXFL 529 NSCLC): > 100 µM
O=[N+]([O-])C(=C/c1ccccc1)/C(=C\c1ccccc1)[N+](=O)[O-],–,–,77.1 µM,–,48.2 µM,30.3 µM,26.2 µM,–,–,–,–,–
Cc1c(O)c(=O)ccn1CCN,> 100,–,–,> 100,–,–,–,> 100,> 100,> 100,> 100,TGI (RXF-631 renal): > 100 µM; TGI (LXFL 529 NSCLC): > 100 µM
NS(=O)(=O)c1ccc(NC(=O)N/N=C/c2ccccc2O)cc1,–,> 100 µM,> 100 µM,> 100,> 100 µM,55.6 µM,> 100 µM,–,–,–,–,–
C#CC[C@@H]1C(=O)N(Cc2ccc(OC)cc2)[C@@H](C(C)C)C(=O)N1Cc1ccc(OC)cc1,–,–,> 100 µM,> 100,51.1 µM,> 100 µM,> 100 µM,–,–,–,–,–

SMILES,TGI (DLD-1 colon) [µM],TGI (SR leukemia),TGI (HS 578T breast),TGI (786-0 renal) [µM],TGI (T-47D breast),TGI (MDA-MB-435),TGI (MDA-MB-231 breast),TGI (SNB-78 CNS) [µM],TGI (HOP-18 NSCLC) [µM],TGI (DMS 273 small cell lung) [µM],TGI (DMS 114 small cell lung) [µM],other results
CCCCCC(=O)N[C@@H](c1ccco1)[C@@H](O)C(=O)O[C@H]1C[C@@]2(O)[C@@H](OC(=O)c3ccccc3)[C@@H]3[C@]4(OC(C)=O)CO[C@@H]4C[C@H](O)[C@@]3(C)C(=O)[C@H](OC(C)=O)C(=C1C)C2(C)C,–,> 25 µM,0.0309 µM and 0.025 µM,–,–,–,–,–,–,–,–,GI50 (MDA-MB-231 breast): 0.00211 µM
C[N+](C)(CCCCCC[N+](C)(C)CCCN1C(=O)c2cccc3cccc(c23)C1=O)CCCN1C(=O)c2cccc3cccc(c23)C1=O,–,> 100 µM,> 100 µM,–,> 100 µM,> 100 µM,> 100 µM,–,–,–,–,–
COC(=O)C(CC(C)C)NC(=O)C(NC(=O)c1ccc(-c2ccc(Cl)cc2Cl)o1)C(C)C (centres undefined),–,> 100 µM,60.8 µM,35.1,> 100 µM,> 100 µM,35.3 µM,–,–,–,–,–
CC(C)=CCCC(C)(OC1OC(CO)C(O)C(O)C1O)C1CCC2(C)C1C(O)CC1C3(C)CCC(O)C(C)(C)C3C(OC3OC(CO)C(O)C(O)C3OC3OC(C)C(O)C(O)C3O)CC12C (centres undefined) (tested in a mixture with another compound),–,> 75 µM,> 75 µM,> 75,> 75 µM,> 75 µM,> 75 µM,–,–,–,–,–
COc1ccccc1/C=C(/C)[N+](=O)[O-],–,1.61 µM and 5.08 µM,29.3 µM and 26.9 µM,> 100,4.64 µM and 3.37 µM,9.18 µM and 3.64 µM,17.7 µM and 7.87 µM,–,–,–,–,GI50 (SR leukemia): 0.237 µM and 1.5 µM
CC(C)(O)/C1=C/C=C/CCCCCCCCCC1,–,> 100 µM,7.78 µM,–,> 100 µM,> 100 µM,> 100 µM,–,–,–,–,–
COc1ccc(Nc2nc3ccccc3n3cccc23)cc1OC,–,37.7 µM,> 100 µM,35,15.2 µM,26.7 µM,40.1 µM,–,–,–,–,–
O=S(O)CCCCCSSc1ccccc1,> 100,35 µM,–,–,–,–,–,> 100,–,–,66.6,TGI (XF 498 CNS): 72.3 µM; TGI (LXFL 529 NSCLC): 37.9 µM
COc1cc(OC2OC(CO)C(O)C(O)C2O)c2c(O)c3c(=O)cc(C)oc3cc2c1 (centres undefined),–,–,> 100 µM,–,> 100 µM,> 100 µM,–,–,–,–,–,–
OCC1O[C@H](O[C@@H]2CCCN3CC(O)C(O)[C@@H]23)C(O)C(O)C1O (some centres undefined),> 100,> 100 µM,–,–,–,–,–,> 100,> 100,> 100,–,TGI (RXF-631 renal): > 100 µM; TGI (LXFL 529 NSCLC): > 100 µM
FC(F)(F)c1ccc2c(c1)N(CCCNCCN1CCOCC1)c1ccccc1S2,33.7,21.8 µM,–,–,–,–,–,23.8,–,36.7,–,TGI (XF 498 CNS): 15.2 µM; TGI (LXFL 529 NSCLC): 25.6 µM
OCC#CCNCl,> 100,–,–,–,–,–,–,> 100,> 100,> 100,> 100,TGI (P388 leukemia): > 100 µM; TGI (XF 498 CNS): > 95.2 µM; TGI (P388/ADR leukemia): > 100 µM; TGI (SN12K1 renal): > 100 µM
CCOC(=O)Cc1cc(OC)c(OC)cc1/C(Cl)=C(\CO)c1ccc(OC)c(OC)c1,> 100,–,–,–,–,–,–,> 100,> 100,> 100,> 100,TGI (XF 498 CNS): 49.2 µM; TGI (RXF-631 renal): > 100 µM
Cc1ccc(/C=C2\Sc3scc(-c4ccccc4)[n+]3C2=O)cc1,–,26.4 µM,37.5 µM,> 56,> 100 µM,> 44.3 µM,65 µM,–,–,–,–,–
Nc1nc(Nc2ccc(Cl)c(Cl)c2)nc2nc[nH]c12,–,33.2 µM,20.2 µM,31.3,25.1 µM,32 µM,31.3 µM,–,–,–,–,–
CCNC(=O)C(C)C1CCC2(C)C=CC(=O)C(C)=C2C1O (centres undefined),> 100,–,–,–,–,–,–,> 100,> 100,> 100,> 100,TGI (P388 leukemia): > 100 µM; TGI (XF 498 CNS): > 100 µM; TGI (P388/ADR leukemia): > 100 µM; TGI (SN12K1 renal): > 100 µM
